Structures can show the parent of a compound that is named as a salt.
The molecules below were run on HUVEC (normal human umbilical vein endothelial cells) (assay: VEGF-induced HUVEC proliferation: cell proliferation inhibitory action test). Details: 72 h, 5 μL of 20 μg/mL test compound solution per well, WST-8 absorbance at 450 nm three days after VEGF addition, read-out: Cell proliferation inhibition rate (%).
Type: cell-based
Experimental: A cell proliferation inhibitory action test of the compounds of the present invention was performed using a VEGF-induced HUVEC proliferation evaluation system (HUVEC stands for normal human umbilical vein endothelial cells), which is one of the widely-used methods of evaluating in vitro angiogenesis inhibitory effects of drugs. As one of the widely-used methods of evaluating angiogenesis inhibitory effects of drugs, a cell proliferation inhibitory action test using a VEGF-induced HUVEC proliferation reaction evaluation system has been reported in Cancer Res., 59, 99-106 (1999). According to the method described in the above-mentioned document, a cell proliferation inhibitory action test of the compounds of the present invention was performed, the cell proliferation inhibition rate was calculated, and the angiogenesis inhibitory effect of each of the compounds of the present invention was evaluated using the obtained rate as an index. Each test compound was dissolved in dimethyl sulfoxide (hereinafter abbreviated as DMSO), and the obtained solution was diluted with a commercially available phosphoric acid buffer solution (hereinafter abbreviated as PBS), whereby a 20 μg/mL test compound solution was prepared. HUVEC was suspended in a 0.5% fetal bovine serum (hereinafter abbreviated as FBS)-containing F12K medium, whereby a 2×10^4 cells/mL HUVEC suspension was prepared. VEGF was dissolved in 0.1% bovine serum albumin-containing PBS, and the obtained solution was diluted with the 0.5% FBS-containing F12K medium, whereby a 400 ng/mL VEGF solution was prepared. • 1) The HUVEC suspension was inoculated in an amount of 100 μL into each well of a 96-well plate coated with type I collagen (2×10^3 cells per well). • 2) One day after the inoculation, the test compound solution was added in an amount of 5 μL per well. • 3) One hour after the addition of the test compound solution, the VEGF solution was added in an amount of 5 μL per well. • 4) Three days after the addition of the VEGF solution, WST-8 assay kit (Dojin Chemical Co., Ltd.) was added in an amount of 10 μL per well. • 5) After 3 hours, the above-mentioned plate was attached to an absorptiometer (Multilabel Counter ARVO), and an absorbance at 450 nm of each well suspension (hereinafter referred to as test compound suspension) was measured. • 6) A test was carried out in the same manner as in the above 1) to 5) except that 1.0% DMSO was used instead of the test compound solution. The result was used as a control. Incubation was carried out under conditions of 37° C., 5% carbon dioxide and […] in an incubator throughout the above-mentioned test steps. The cell proliferation inhibition rate (%), which was used as an index of an angiogenesis inhibitory effect, was calculated according to the following calculation equation. Cell proliferation inhibition rate (%)=100−{(Absorbance of test compound suspension−A)/(absorbance of control−A)}×100 (Calculation Equation) A: Absorbance of only cell suspension (cell+medium) (Test Results and Discussion)
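Also: each well holds 100 µL cell suspension before compound addition.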

Compound	inhibition at 20 µg/mL (stock) [%]
O=C(Nc1ccc2c(c1)CCC2)c1cccnc1SCc1ccnc(N2CCOCC2)c1 [Compound 1-10, N-(Indan-5-yl)-2-(2-morpholinopyridin-4-ylmethylthio)pyridine-3-carboxamide]	94
Nc1cc(CSc2ncccc2C(=O)Nc2ccc(Cl)cc2)ccn1 [Compound 3-9, 2-(2-Aminopyridin-4-ylmethylthio)-N-(4-chlorophenyl)pyridine-3-carboxamide monohydrochloride]	100
Cc1cc(C)cc(NC(=O)c2cccnc2SCc2ccnc(N(C)CCN(C)C)c2)c1 [Compound 1-3, 2-[2-(N-(2-Dimethylaminoethyl)-N-methylamino)pyridin-4-ylmethylthio]-N-(3,5-dimethylphenyl)pyridine-3-carboxamide]	99
CC(C)(C)OC(=O)Nc1cc(CSc2ncccc2C(=O)Nc2ccc3c(c2)CCC3)ccn1 [Compound 2-3, 2-(2-tert-Butoxycarbonylaminopyridin-4-ylmethylthio)-N-(indan-5-yl)pyridine-3-carboxamide]	100
CN(C)CCN(C)CC(=O)NC(Sc1ncccc1C(=O)Nc1ccc(OC(F)F)cc1)c1ccncc1 (stereo not drawn) [Compound 17-50, N-(4-Difluoromethoxyphenyl)-2-[2-(N-(2-dimethylaminoethyl)-N-methylamino)acetylaminopyridin-4-ylmethylthio]pyridine-3-carboxamide]	100
Cc1cc(C)cc(NC(=O)c2cccnc2SCc2ccnc(NC(=O)NC(C)(C)C)c2)c1 [Compound 5-2, 2-[2-(N′-tert-Butylureido)pyridin-4-ylmethylthio]-N-(3,5-dimethylphenyl)pyridine-3-carboxamide]	100
Cc1cc(C)cc(NC(=O)c2cccnc2SCc2ccnc(Nc3ccccc3)c2)c1 [Compound 8-1, N-(3,5-Dimethylphenyl)-2-(2-phenylaminopyridin-4-ylmethylthio)pyridine-3-carboxamide]	100
CNC(=O)Nc1cc(CSc2ncccc2C(=O)Nc2ccc(OC(F)F)cc2)ccn1 [Compound 9-4, N-(4-Difluoromethoxyphenyl)-2-[2-(N′-methylureido)pyridin-4-ylmethylthio]pyridine-3-carboxamide]	100
CC(=O)N1CCN(c2cc(CSc3ncccc3C(=O)Nc3ccc4c(c3)CCC4)ccn2)CC1 [Compound 1-11, 2-[2-(4-Acetylpiperazin-1-yl)pyridin-4-ylmethylthio]-N-(indan-5-yl)-pyridine-3-carboxamide]	96
Nc1cc(CSc2ccccc2C(=O)Nc2ccc(Cl)cc2)ccn1 [Compound 3-21, 2-(2-Aminopyridin-4-ylmethylthio)-N-(4-chlorophenyl)benzamide monohydrochloride]	100
CCCCCNc1cc(CSc2ncccc2C(=O)Nc2cc(C)cc(C)c2)ccn1 [Compound 1-20, N-(3,5-Dimethylphenyl)-2-(2-n-pentylaminopyridin-4-ylmethylthio)pyridine-3-carboxamide]	100
CC(C)(C)OC(=O)Nc1cc(CSc2ncccc2C(=O)Nc2ccc(OC(F)(F)F)cc2)ccn1 [Compound 2-4, 2-(2-tert-Butoxycarbonylaminopyridin-4-ylmethylthio)-N-(4-trifluoromethoxyphenyl)pyridine-3-carboxamide]	99
CCCNC(=O)Nc1cc(CSc2ncccc2C(=O)Nc2cc(C)cc(C)c2)ccn1 [Compound 5-1, N-(3,5-Dimethylphenyl)-2-[2-(N′-n-propylureido)pyridin-4-ylmethylthio]pyridine-3-carboxamide]	100
CC(=O)N(C)c1cc(CSc2ncccc2C(=O)Nc2cc(C)cc(C)c2)ccn1 [Compound 4-12, 2-[2-(N-Acetyl-N-methylamino)pyridin-4-ylmethylthio]-N-(3,5-dimethylphenyl)pyridine-3-carboxamide]	100
CNC(=O)Nc1cc(CSc2ncccc2C(=O)Nc2ccc(OC(F)(F)F)cc2)ccn1 [Compound 9-2, 2-[2-(N′-Methylureido)pyridin-4-ylmethylthio]-N-(4-trifluoromethoxyphenyl)pyridine-3-carboxamide]	100
Cc1cc(C)cc(NC(=O)c2cccnc2SCc2ccnc(NS(=O)(=O)C(F)(F)F)c2)c1 [Compound 4-6, N-(3,5-Dimethylphenyl)-2-(2-trifluoromethanesulfonylaminopyridin-4-ylmethylthio)pyridine-3-carboxamide]	100
Cc1cc(C)cc(NC(=O)c2cccnc2SCc2ccnc(NC(=O)OC(C)(C)C)c2)c1 [Compound 2-1, 2-(2-tert-Butoxycarbonylaminopyridin-4-ylmethylthio)-N-(3,5-dimethylphenyl)pyridine-3-carboxamide]	100
CC(=O)Nc1cc(CSc2ncccc2C(=O)Nc2cc(C)c(O)c(C)c2)ccn1 [Compound 4-37, 2-(2-Acetylaminopyridin-4-ylmethylthio)-N-(3,5-dimethyl-4-hydroxyphenyl)pyridine-3-carboxamide]	100
CC(C)(C)c1ccc(NC(=O)c2cccnc2SCc2ccnc(N)c2)cc1 [Compound 3-4, 2-(2-Aminopyridin-4-ylmethylthio)-N-(4-tert-butylphenyl)pyridine-3-carboxamide monohydrochloride]	100
NCC(=O)Nc1cc(CSc2ncccc2C(=O)Nc2ccc(OC(F)F)cc2)ccn1 [Compound 18-1, 2-(2-Aminoacetylaminopyridin-4-ylmethylthio)-N-(4-difluoromethoxyphenyl)pyridine-3-carboxamide]	88
CC(C)(C)OC(=O)Nc1cc(CSc2ncccc2C(=O)Nc2ccc3cn[nH]c3c2)ccn1 [Compound 2-6, 2-(2-tert-Butoxycarbonylaminopyridin-4-ylmethylthio)-N-(1H-indazol-6-yl)pyridine-3-carboxamide]	100
Cc1cc(C)cc(NC(=O)c2cccnc2SCc2ccnc(NC(=O)C(F)(F)F)c2)c1 [Compound 4-3, N-(3,5-Dimethylphenyl)-2-(2-trifluoroacetylaminopyridin-4-ylmethylthio)pyridine-3-carboxamide]	100
Nc1cc(CSc2ncccc2C(=O)Nc2ccc3cn[nH]c3c2)ccn1 [Compound 3-5, 2-(2-Aminopyridin-4-ylmethylthio)-N-(1H-indazol-6-yl)pyridine-3-carboxamide monohydrochloride]	96
CC(=O)Nc1cc(CSc2ccccc2C(=O)Nc2ccc(C(C)(C)C)cc2)ccn1 [Compound 4-44, 2-(2-Acetylaminopyridin-4-ylmethylthio)-N-(4-tert-butylphenyl)benzamide]	85
Cc1cc(C)cc(NC(=O)c2cccnc2SCc2ccnc(NC=O)c2)c1 [Compound 6-1, N-(3,5-Dimethylphenyl)-2-(2-formylaminopyridin-4-ylmethylthio)pyridine-3-carboxamide]	100
Nc1cc(CSc2ncccc2C(=O)Nc2cc3ccccc3cn2)ccn1 [Compound 3-13, 2-(2-Aminopyridin-4-ylmethylthio)-N-(isoquinolin-3-yl)pyridine-3-carboxamide]	100
Cc1cc(C)cc(NC(=O)c2cccnc2SCc2ccnc(NC(=O)C(C)C)c2)c1 [Compound 4-4, N-(3,5-Dimethylphenyl)-2-(2-isobutyrylaminopyridin-4-ylmethylthio)pyridine-3-carboxamide]	100
CNc1cc(CSc2ncccc2C(=O)Nc2ccc3c(c2)CCC3)ccn1 [Compound 3-7, N-(Indan-5-yl)-2-(2-methylaminopyridin-4-ylmethylthio)pyridine-3-carboxamide monohydrochloride]	96
CC(=O)Nc1cc(CSc2ccccc2C(=O)Nc2ccc(Cl)cc2)ccn1 [Compound 4-42, 2-(2-Acetylaminopyridin-4-ylmethylthio)-N-(4-chlorophenyl)benzamide]	100
Cc1cc(C)cc(NC(=O)c2cccnc2SCc2ccnc(N3CCCCC3)c2)c1 [Compound 1-5, N-(3,5-Dimethylphenyl)-2-[2-(piperidin-1-yl)pyridin-4-ylmethylthio]pyridine-3-carboxamide]	90
